Drawing on paper PMC4671257, “Plasmodium falciparum SERA5 plays a non-enzymatic role in the malarial asexual blood-stage lifecycle” (Molecular Microbiology, 2015), this text covers IC50 for one compound.

The experiment deals with SERA5 (rSERA5-C) (Plasmodium falciparum, UniProt Q9TY95, S596C). The experiment is described as follows: fluorogenic peptide (Abz-LAQAVRSSSR-Dpa) cleavage assay with purified rSERA5-C, progress curves. The format is biochemical.

By IC50 is commonly meant the concentration at which inhibition is half-maximal. The low end stands for inhibition by little substance, the high end for a need for much substance.

With `CC(C)C[C@H](NC(=O)[C@H]1O[C@@H]1C(=O)O)C(=O)NCCCCN=C(N)N` [E64, trans-epoxysuccinyl-L-leucylamido(4-guanidino)butane], half-maximal inhibition (IC50) required 2.9 ± 0.3 µM.
